For one test, the target named is JNK1 (Homo sapiens (Human), UniProt P45983). Nature of the test: In Vitro JNK1 Assay (TR-FRET, phosphorylation of GST-c-Jun). The note with it: 0.2 nM active JNK1 kinase, 26.7 nM GST-c-Jun, 2 μM ATP, 30 min at room temperature. The class given is biochemical. A digest of the protocol:
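IC50 derived from percent inhibition across 10 serially diluted concentrations, with TR-FRET detection of phospho-c-Jun via an anti-phospho-c-Jun antibody after EDTA stop. Substrate was GST-c-Jun 1-79, reacted 30 min at room temperature in pH 7.0 HEPES buffer with MgCl2, DTT, vanadate and BSA.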

The test system of test [1] is phospho(Ser63)-c-jun in HK-2 cells. Nature of the test: Cell-Based Assay for JNK Inhibitors (in-cell ELISA, phospho(Ser63)-c-jun after TNFα). The note with it: HK-2 cells (human proximal tubule cells), 60 minutes compound, then 10 ng/mL TNFα for 30 minutes. Summed up: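 HK-2 human proximal tubule cells were seeded at 40,000 cells/well, cultured 24 h, then serum-starved 16–24 h before TNFα stimulation with compound. Phospho(Ser63)-c-jun was quantified by in-cell ELISA on fixed, permeabilised cells, using a rabbit phospho-specific primary (overnight, 4 °C) and an HRP-linked anti-rabbit secondary. Absorbance was read at 450 nm.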

JNK1, sequence (P45983 whole entry): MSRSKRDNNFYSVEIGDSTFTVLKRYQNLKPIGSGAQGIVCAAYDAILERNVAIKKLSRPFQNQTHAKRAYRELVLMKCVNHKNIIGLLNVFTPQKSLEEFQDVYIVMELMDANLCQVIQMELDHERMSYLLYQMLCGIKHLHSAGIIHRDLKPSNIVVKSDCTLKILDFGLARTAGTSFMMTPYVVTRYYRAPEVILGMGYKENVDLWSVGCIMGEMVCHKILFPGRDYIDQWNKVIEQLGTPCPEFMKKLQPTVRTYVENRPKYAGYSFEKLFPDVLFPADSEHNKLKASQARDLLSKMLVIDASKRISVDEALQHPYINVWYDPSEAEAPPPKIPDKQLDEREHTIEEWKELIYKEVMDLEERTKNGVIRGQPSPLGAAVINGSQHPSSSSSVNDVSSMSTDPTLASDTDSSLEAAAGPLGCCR

As to `CN(C)C(=O)c1c(CNC(=O)c2ccc(N3CCC(CO)CC3)nc2)c(=O)c2ccc(Cl)cc2n1-c1ccccc1` [Example I-24, 4-Hydroxymethyl-3,4,5,6-tetrahydro-2H-[1,2′]bipyridinyl-5′-carboxylic acid (7-chloro-2-dimethylcarbamoyl-4-oxo-1-phenyl-1,4-dihydro-quinolin-3-ylmethyl)-amide], at JNK1, the IC50 came to 140 nM. The same compound yielded an EC50 in test [1] of 11 µM.
Regarding `O=C(NCc1cn(-c2ccccc2)c2cc(Cl)ccc2c1=O)c1ccc(N2CC[C@@H](O)C2)nc1` [Example I-70], the IC50 against JNK1 amounted to 24 nM. This compound also returned a concentration giving a half-maximal response (EC50) in test [1] of 33 µM.
In turn, `COC(=O)c1ccc(C(=O)NCc2c(C(=O)OC)n(-c3ccccc3)c3cc(Cl)ccc3c2=O)cc1` [Example I-133, 7-Chloro-3-[(4-methoxycarbonyl-benzoylamino)-methyl]-4-oxo-1-phenyl-1,4-dihydro-quinoline-2-carboxylic acid methyl ester] gave an IC50 on JNK1 of 6 nM. Moreover, the EC50 in test [1] was 13 µM.
On to `O=C(NCc1cn(-c2ccccc2)c2cc(Cl)ccc2c1=O)c1ccc2nc[nH]c2c1` [Example I-33, 3H-Benzoimidazole-5-carboxylic acid (7-chloro-4-oxo-1-phenyl-1,4-dihydro-quinolin-3-ylmethyl)-amide], for which, on JNK1, the IC50 came to 41 nM. Besides, in test [1], the EC50 came to 100 µM.
For `O=C(NCc1cn(-c2ccccc2)c2cc(Cl)ccc2c1=O)c1ccc(NC2CCOCC2)nc1` [Example I-78, N-(7-Chloro-4-oxo-1-phenyl-1,4-dihydro-quinolin-3-ylmethyl)-6-(tetrahydro-pyran-4-ylamino)-nicotinamide], in that order: 49 nM and 22 µM.
The corresponding values for `NC(=O)c1ccc(C(=O)NCc2c(-c3ncco3)n(-c3ccccc3)c3cc(Cl)ccc3c2=O)cc1` [Example I-4, N-(7-Chloro-2-oxazol-2-yl-4-oxo-1-phenyl-1,4-dihydro-quinolin-3-ylmethyl)-terephthalamide] are 14 nM and 3 µM.
`COC(=O)c1c(CNC(=O)c2ccccc2)c(=O)c2ccc(Cl)cc2n1-c1ccccc1` [Example I-150, 7-Chloro-3-[(benzoylamino)-methyl]-4-oxo-1-phenyl-1,4-dihydro-quinoline-2-carboxylic acid methyl ester] had an IC50 on JNK1 of 12 nM. This compound also came in with an EC50 in test [1] of 7.7 µM.
As for `CN(C)C(=O)c1c(CNC(=O)c2cnc(N3CCC(CO)CC3)s2)c(=O)c2ccc(Cl)cc2n1-c1ccccc1` [Example I-26], the IC50 on JNK1 was found to be 98 nM. This compound also gave an EC50 in test [1] of 14 µM.
The corresponding values for `O=C(NCc1c(-c2ncco2)n(-c2ccccc2)c2ncccc2c1=O)c1ccc(N2CCC(CO)CC2)nc1` [Example I-12, 4-Hydroxymethyl-3,4,5,6-tetrahydro-2H-[1,2′]bipyridinyl-5′-carboxylic acid (2-oxazol-2-yl-4-oxo-1-phenyl-1,4-dihydro-[1,8]naphthyridin-3-ylmethyl)-amide] are 7 nM and 2.5 µM.
Turning to `O=C(NCc1cn(-c2ccccc2)c2cc(Cl)ccc2c1=O)c1ccc(NCCO)nc1` [Example I-77, N-(7-Chloro-4-oxo-1-phenyl-1,4-dihydro-quinolin-3-ylmethyl)-6-(2-hydroxy-ethylamino)-nicotinamide], 47 nM corresponded to half-maximal inhibition at JNK1 (IC50). The same compound had an EC50 in test [1] of 63 µM.
Take `COC(=O)c1c(CNC(=O)c2ccc(-c3ncc[nH]3)cc2)c(=O)c2ccc(Cl)cc2n1-c1ccccc1` [Example I-114, 7-Chloro-3-{[4-(1H-imidazol-2-yl)-benzoylamino]-methyl}-4-oxo-1-phenyl-1,4-dihydro-quinoline-2-carboxylic acid methyl ester]: on JNK1, 7 nM corresponded to half-maximal inhibition (IC50). The same compound showed a half-maximal effective concentration (EC50) in test [1] of 4.1 µM.
Take `O=C(NCc1cn(-c2ccccc2)c2cc(Cl)ccc2c1=O)c1cnc(N2CCC(CO)CC2)s1` [Example I-93, 2-(4-Hydroxymethyl-piperidin-1-yl)-thiazole-5-carboxylic acid (7-chloro-4-oxo-1-phenyl-1,4-dihydro-quinolin-3-ylmethyl)-amide]: inhibition on JNK1 was half-maximal at 33 nM (IC50). The compound further showed an EC50 in test [1] of 100 µM.
Compound `COC(=O)c1c(CNC(=O)c2cccc(F)c2)c(=O)c2ccc(Cl)cc2n1-c1ccccc1` [Example I-138, 7-Chloro-3-[(3-fluoro-benzoylamino)-methyl]-4-oxo-1-phenyl-1,4-dihydro-quinoline-2-carboxylic acid methyl ester] yielded a half-maximal inhibitory concentration (IC50) against JNK1 of 13 nM. This compound returned an EC50 in test [1] of 10 µM.
The corresponding values for `CN(C)C1CCN(c2ccc(C(=O)NCc3cn(-c4ccccc4)c4cc(Cl)ccc4c3=O)cn2)CC1` [Example I-75, 4-Dimethylamino-3,4,5,6-tetrahydro-2H-[1,2′]bipyridinyl-5′-carboxylic acid (7-chloro-4-oxo-1-phenyl-1,4-dihydro-quinolin-3-ylmethyl)-amide] are 31 nM and 14 µM.
Regarding `COC(=O)c1c(CNC(=O)c2ccc3cc[nH]c3c2)c(=O)c2ccc(Cl)cc2n1-c1ccccc1` [Example I-120, 7-Chloro-3-{[(1H-indole-6-carbonyl)-amino]-methyl}-4-oxo-1-phenyl-1,4-dihydro-quinoline-2-carboxylic acid methyl ester], half-maximal inhibition on JNK1 (IC50) was put at 15 nM. The compound further showed an EC50 in test [1] of 3 µM.
As for `O=C(NCc1cn(-c2ccccc2)c2cc(Cl)ccc2c1=O)c1ccc(N2CCCCC2)nc1` [Example I-65, 3,4,5,6-Tetrahydro-2H-[1,2′]bipyridinyl-5′-carboxylic acid (7-chloro-4-oxo-1-phenyl-1,4-dihydro-quinolin-3-ylmethyl)-amide], at JNK1, the IC50 is 19 nM. The same compound showed an EC50 in test [1] of 40 µM.
At JNK1, `COC(=O)c1c(CNC(=O)c2ccc(-c3cc[nH]n3)cc2)c(=O)c2ccc(Cl)cc2n1-c1ccccc1` [Example I-122, 7-Chloro-4-oxo-1-phenyl-3-{[4-(1H-pyrazol-3-yl)-benzoylamino]-methyl}-1,4-dihydro-quinoline-2-carboxylic acid methyl ester] yielded an IC50 of 15 nM. For the same compound, in test [1], the EC50 worked out at 3.3 µM.

The record behind these values is US8501732B2, “Aminomethyl quinolone compounds” (Hoffmann-La Roche Inc., priority 2011, dated 2013).
